From patent publication US8329711B2, “Pyridone-substituted-dihydropyrazolopyrimidinone derivative” (MSD K.K., priority 2007, dated 2012)
pEC50, pIC50: −log10 of the molar value.

Tests used:
[1] = biological target: T1, Wee1 kinase (Homo sapiens, UniProt P30291); assay: Wee1 kinase-inhibitory effect (33P-ATP filter assay with GST-tagged Wee1); type: biochemical; conditions: purified GST-Wee1, Poly(Lys,Tyr) substrate, 10 μM ATP, 30° C. for 30 minutes; read-out: Weel-Inhibitory Effect (IC50)
T1 construct: made in house; host or cells: Sf9 insect cells (recombinant baculovirus)
T1 sequence (P30291 whole entry): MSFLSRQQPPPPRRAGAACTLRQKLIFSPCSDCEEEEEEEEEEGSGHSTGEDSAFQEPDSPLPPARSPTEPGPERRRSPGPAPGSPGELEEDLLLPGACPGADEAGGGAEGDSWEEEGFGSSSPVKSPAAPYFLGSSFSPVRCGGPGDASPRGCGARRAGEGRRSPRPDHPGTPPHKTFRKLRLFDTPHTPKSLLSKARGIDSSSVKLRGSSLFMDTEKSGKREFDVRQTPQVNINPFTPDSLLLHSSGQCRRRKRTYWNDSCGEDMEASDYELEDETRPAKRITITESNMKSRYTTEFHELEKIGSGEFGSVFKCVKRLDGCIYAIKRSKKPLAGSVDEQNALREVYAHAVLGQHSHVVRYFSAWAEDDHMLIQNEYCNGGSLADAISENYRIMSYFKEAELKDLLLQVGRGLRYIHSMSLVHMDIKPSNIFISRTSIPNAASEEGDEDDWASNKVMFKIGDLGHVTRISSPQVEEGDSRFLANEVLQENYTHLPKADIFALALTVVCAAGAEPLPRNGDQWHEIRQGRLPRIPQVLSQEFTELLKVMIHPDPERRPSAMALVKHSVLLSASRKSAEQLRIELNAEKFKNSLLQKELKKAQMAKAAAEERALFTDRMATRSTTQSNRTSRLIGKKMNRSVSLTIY
From the text: Pharmacological Test 1 (Wee1 Kinase-Inhibitory Effect)
(1) Purification of Wee1 Kinase:
A cDNA of Wee1 kinase with glutathion-S-transferase (GST) fused at the amino terminal thereof was inserted into a baculovirus expression vector to construct a recombinant baculovirus, with which cells of an insect cell line Sf9 were infected for high expression therein. The infected cells were collected and solubilized, and then the GST-tagged Wee1 kinase protein was adsorbed by a glutathion column, and eluted from the column with glutathion, and the active fraction was desalted in a desalting column to give a purified enzyme.
(2) Determination of Wee1 Kinase Activity:
In determination of the Wee1 kinase activity, a synthetic peptide, Poly(Lys,Tyr) Hydrobromide (Lys:Tyr (4:1)) bought from Sigma was used as the substrate.
The amount of the reaction liquid was 21.1 μL; and the composition of the reaction buffer was 50 mM Tris-HCl buffer (pH 7.4)/10 mM magnesium chloride/1 mM dithiothreitol. The purified Wee1 kinase, 2.5 μg of the substrate peptide, 10 μM of non-labeled adenosine triphosphate (ATP) and 1 μCi of [γ-^33P]-labeled ATP (2500 Ci/mmol or more) were added to it, and reacted at 30° C. for 30 minutes. Next, 10 μL of 350 mM phosphate buffer was added to the reaction system to stop the reaction. The substrate peptide was adsorbed by a P81 paper filter 96-well plate, then washed a few times with 130 mM phosphate buffer, and its radioactivity was counted with a liquid scintillation counter. The [γ-^33P]-labeled ATP was bought from Amersham Bioscience.
To add a test compound to the reaction system, the compound was diluted with dimethyl sulfoxide (DMSO) to prepare a series of dilutions. 1.1 μL of each dilution was added to the reaction system. As a control, 1.1 μL of DMSO was added to the reaction system.

[2] = test system: Cdc2 (Cdk1) tyrosine 15 phosphorylation in WiDr cells; assay: Cdc2 (Cdk1) tyrosine 15-phosphorylation-inhibitory effect in WiDr cells, gemcitabine-treated (ELISA); type: cell-based; conditions: Homo sapiens, 100 nM gemcitabine 24 hours, then test compound with nocodazole 8 hours, read-out: Cdc2-Y15 Phosphorylation-Inhibitory Effect (WiDr, +gemcitabine) (EC50)
From the text: Pharmacological Test 2 (Method of Determining Drug Potency with Cells (Cdc2 (Cdk1) Tyrosine 15-Phosphorylation-Inhibitory Effect))
Fetal bovine serum (FBS) was gotten from Morgate; media RPMI1640 and DMEM were from Invitrogen; camptothecin was from Sigma; gemcitabine was from Nippon Eli Lilly; nocodazole and protease inhibitor cocktail were from Sigma; rabbit anti-Cdc2 antibody and mouse anti-Cdc2 antibody were from Santa Cruz Biotechnology; rabbit anti-tyrosine 15-phosphorylated Cdc2 antibody and horseradish peroxidase-labeled anti-mouse IgG antibody were from Cell Signaling Technology; sure blue reserve TMB peroxidase substrate was from Kirkegaard and Perry Laboratories.
Human non-small cell lung cancer cells (NCI-H1299) and human colon cancer cells (WiDr) were gotten from American Type Culture Collection (ATCC).
In the method of using WiDr cells, the cells were suspended in a medium of 10% FBS-added DMEM, and the cell suspension was applied to a 96-well Nunclondelta-processed plastic plate in an amount of 2000 cells/100 μL/well, in which the cells were incubated overnight in 5% CO2-95% air at 37° C. Gemcitabine was dissolved in PBS, and diluted with a medium of 10% FBS-added DMEM, and then this was applied to the plate on which the cells had been previously sowed, in an amount of 50 μL/well in such a manner that the final concentration of gemcitabine could be 100 nM. Then, the cells were incubated for 24 hours at 37° C. in 5% CO2-95% air. A test compound was stepwise diluted with DMSO, then diluted with 1200 nM nocodazole-containing, 10% FBS-added DMEM, and applied to the plate on which the […] cells had been sowed, in an amount of 50 μL/well. The cells were incubated for 8 hours at 37° C. in 5% CO2-95% air, then the culture was removed, and a cytolytic buffer was added to the plate in an amount of 100 μL/well, shaken at 4° C. for 2 hours, then frozen at −80° C., and thawed to give a cell solution. […] Cdc2 was determined through ELISA as follows: A rabbit anti-Cdc2 antibody solution, which had been diluted 200-fold with 50 mM carbonate-bicarbonate buffer (pH 9.6), was applied to a 96-well maxisorp plastic plate in an amount of 50 μL/well, and statically kept overnight at 4° C. so as to fix the antibody on the plate. […] Then, 1 M hydrochloric acid was added to it in an amount of 100 μL/well to stop the reaction, and this was analyzed through colorimetry. Tyrosine 15-phosphorylated Cdc2 was determined through ELISA as follows: A rabbit anti-tyrosine 15-phosphorylated Cdc2 antibody solution, which had been diluted 100-fold with 50 mM carbonate-bicarbonate buffer (pH 9.6), was applied to a 96-well maxisorp plastic plate in an amount of 50 μL/well, and statically kept overnight at 4° C. so as to fix the antibody on the plate. […]

| SMILES | pIC50 [1] | pEC50 [2] |
| --- | --- | --- |
| C#CCn1c(=O)c2cnc(Nc3ccc4c(c3)CN(C)CC4)nc2n1-c1cccc(-n2ccccc2=O)n1 [Example 42, 6′-{6-[(2-Methyl-1,2,3,4-tetrahydroisoquinolin-7-yl)amino]-3-oxo-2-(2-propynyl)-2,3-dihydro-1H-pyrazolo[3,4-d]pyrimidin-1-yl}-2H-1,2′-bipyridin-2-one] | 8.36 | – |
| C=CCn1c(=O)c2cnc(Nc3ccc(N4CCN(C)CC4)c(C)c3)nc2n1-c1cccc(-n2ccccc2=O)n1 [Example 11, 6′-(2-Allyl-6-{[3-methyl-4-(4-methylpiperazin-1-yl)phenyl]amino}-3-oxo-2,3-dihydro-1H-pyrazolo[3,4-d]pyrimidin-1-yl)-2H-1,2′-bipyridin-2-one] | 8.00 | 7.04 |
| C=CCn1c(=O)c2cnc(Nc3ccc(N4CC(F)(F)C4)cc3)nc2n1-c1cccc(-n2ccccc2=O)n1 [Example 17, 6′-(2-Allyl-6-{[4-(3,3-difluoroazetidin-1-yl)phenyl]amino}-3-oxo-2,3-dihydro-1H-pyrazolo[3,4-d]pyrimidin-1-yl)-2H-1,2′-bipyridin-2-one] | 8.16 | – |
| C=CCn1c(=O)c2cnc(Nc3cccc(C4CCN(C)CC4)c3)nc2n1-c1cccc(-n2ccccc2=O)n1 [Example 27, 6′-(2-Allyl-6-{[3-(1-methylpiperizin-4-yl)phenyl]amino}-3-oxo-2,3-dihydro-1H-pyrazolo[3,4-d]pyrimidin-1-yl)-2H-1,2′-bipyridin-2-one] | 8.16 | – |
| C=CCn1c(=O)c2cnc(Nc3ccc(N4CC[C@H](N(C)C)C4)cc3)nc2n1-c1cccc(-n2ccccc2=O)n1 [Example 3, 6′-[2-allyl-6-({4-[(3S)-3-(dimethylamino)pyrrolidin-1-yl]phenyl}amino)-3-oxo-2,3-dihydro-1H-pyrazolo[3,4-d]pyrimidin-1-yl]-2H-1,2′-bipyridin-2-one] | 7.80 | – |
| C=CCn1c(=O)c2cnc(Nc3ccc(N4CC[C@@H](N(C)C)C4)cc3)nc2n1-c1cccc(-n2ccccc2=O)n1 [Example 2, 6′-[2-allyl-6-({4-[(3R)-3-(dimethylamino)pyrrolidin-1-yl]phenyl}amino)-3-oxo-2,3-dihydro-1H-pyrazolo[3,4-d]pyrimidin-1-yl]-2H-1,2′-bipyridin-2-one] | 7.74 | 6.96 |
| C=CCn1c(=O)c2cnc(Nc3ccc(N4CCN(C)CC4)cc3)nc2n1-c1cc(F)cc(-n2ccccc2=O)c1 [Example 4, 2-allyl-1-[3-fluoro-5-(2-oxopyridin-1(2H)-yl)phenyl]-6-{[4-(4-methylpiperazin-1-yl)phenyl]amino}-1,2-dihydro-3H-pyrazolo[3,4-d]pyrimidin-3-one] | 8.14 | 7.07 |

Continued by rising pIC50 [1], values first:

| pIC50 [1] | pEC50 [2] | SMILES |
| --- | --- | --- |
| 7.62 | 6.77 | C=CCn1c(=O)c2cnc(Nc3ccc(C4CCN(C)CC4)cc3)nc2n1-c1cccc(-n2ccccc2=O)c1 [Example 8] |
| 7.69 | – | CC(C)n1c(=O)c2cnc(Nc3ccc4c(c3)CN(C)CC43CC3)nc2n1-c1cccc(-n2ccccc2=O)n1 [Example 39, 6′-{2-Isopropyl-6-[(2′-methyl-2′,3′-dihydro-1′H-spiro[cyclopropane-1,4′-isoquinolin]-7′-yl)amino)-3-oxo-2,3-dihydro-1H-pyrazolo[3,4-d]pyrimidin-1-yl]-2H-1,2′-bipyridin-2-one] |
| 7.90 | – | CN1Cc2cc(Nc3ncc4c(=O)n(C)n(-c5cccc(-n6ccccc6=O)n5)c4n3)ccc2C2(CC2)C1 [Example 38, 6′-{2-Methyl-6-[(2′-methyl-2′,3′-dihydro-1′H-spiro[cyclopropane-1,4′-isoquinolin]-7′-yl)amino]-3-oxo-2,3-dihydro-1H-pyrazolo[3,4-d]pyrimidin-1-yl}-2H-1,2′-bipyridin-2-one] |
| 7.96 | – | C=CCn1c(=O)c2cnc(Nc3ccc(C4CCN(C)CC4)cc3)nc2n1-c1cccc(-n2ccccc2=O)n1 [Example 9, 6′-(2-Allyl-6-{[4-(1-methylpiperidin-4-yl)phenyl]amino}-3-oxo-2,3-dihydro-1H-pyrazolo[3,4-d]pyrimidin-1-yl)-2H-1,2′-bipyridin-2-one] |
| 8.19 | – | C=CCn1c(=O)c2cnc(Nc3ccc(OC)c(CO)c3)nc2n1-c1cccc(-n2ccccc2=O)n1 [Example 29, 6′-(2-Allyl-6-{[3-(hydroxymethyl)-4-methoxyphenyl]amino}-3-oxo-2,3-dihydro-1H-pyrazolo[3,4-d]pyrimidin-1-yl)-2H-1,2′-bipyridin-2-one] |
